Results taken from the supplement of paper PMC10331698.
± gives the standard deviation of the averaged measurements.

Tests used:
Assay in all cases: level (log10 ratio to DMSO vehicle control); higher = higher biomarker level / cell amount than vehicle control
Settings in all cases: in DMSO
[1] = compound: CCCCCCCCC(F)(F)C(F)(F)C(F)(F)C(F)(F)C(F)(F)C(F)(F)F [1-(Perfluorohexyl)octane]
Method: (§1)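 BioMAP Diversity Plus panel of 12 human primary cell co-culture systems (3C, 4H, LPS, SAg, BT, BF4T, BE3C, CASM3C, HDF3CGF, KF3CT, MyoF, Mphg). Compounds were added 1 h before stimulation and left for 24 h (MyoF 48 h; BT 72 h for soluble read-outs or 6 d for IgG). Biomarkers were read by ELISA, cytotoxicity by SRB, PBMC viability and proliferation by Alamar Blue. Each well value was divided by the mean of 8 DMSO control wells on the same plate and log10 transformed; duplicate blinded samples were tested at 4 concentrations.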

[2] = compound: Cn1cnc([N+](=O)[O-])c1Sc1ncnc2[nH]cnc12 [Azathioprine]
Method: as §1

[3] = compound: NC(=O)C(F)(F)C(F)(F)C(F)(F)C(F)(F)C(F)(F)C(F)(F)C(F)(F)F [Perfluorooctanamide]
Method: as §1

[4] = compound: O=C(O)C(F)(F)C(F)(F)C(F)(F)C(F)(F)C(F)(F)C(F)(F)C(F)(F)C(F)(F)Cl [9-Chloro-perfluorononanoic acid]
Method: as §1

[5] = compound: O=C(O)C(F)(F)OC(F)(F)C(F)(F)OC(F)(F)C(F)(F)C(F)(F)C(F)(F)F [Perfluoro-3,6-dioxadecanoic acid]
Method: as §1

[6] = compound: O=S(=O)(O)C(F)(F)C(F)(F)C(F)(F)C(F)(F)F [Perfluorobutanesulfonic acid]
Method: as §1

[7] = compound: OCC(F)(F)C(F)(F)C(F)(F)F [1H,1H-Heptafluorobutanol]
Method: as §1

Row | Test System | level (log10) ([1]; 6700 nM) | level (log10) ([1]; 20000 nM) | level (log10) ([2]; 1400 nM) | level (log10) ([2]; 4200 nM) | level (log10) ([2]; 13000 nM) | level (log10) ([2]; 38000 nM) | level (log10) ([3]; 6700 nM) | level (log10) ([3]; 20000 nM) | level (log10) ([3]; 60000 nM) | level (log10) ([4]; 6700 nM) | level (log10) ([4]; 20000 nM) | level (log10) ([5]; 6700 nM) | level (log10) ([5]; 20000 nM) | level (log10) ([5]; 60000 nM) | level (log10) ([6]; 6700 nM) | level (log10) ([6]; 20000 nM) | level (log10) ([6]; 60000 nM) | level (log10) ([7]; 6700 nM) | level (log10) ([7]; 20000 nM) | level (log10) ([7]; 60000 nM)
1 | lMphg:SRB-Mphg | -0.007 ± 0.013 | 0.0305 ± 0.019 | -0.001 ± 0.031 | -0.0085 ± 0.0021 | -0.0155 ± 0.011 | -0.0235 ± 0.0021 | -0.0145 ± 0.021 | -0.01 ± 0.0071 | -0.016 ± 0.0057 | 0.01 ± 0.0042 | 0.0055 ± 0.018 | 0.012 ± 0.016 | 0.014 ± 0.024 | -0.0125 ± 0.03 | 0.01 ± 0.018 | 0.0045 ± 0.015 | -0.0005 ± 0.012 | 0.005 ± 0.0028 | -0.009 ± 0.0042 | 0.006 ± 0.0099
2 | CASM3C:CCL2/MCP-1 | -0.0065 ± 0.018 | 0.001 ± 0.0042 | 0.0135 ± 0.044 | -0.012 ± 0.014 | -0.0195 ± 0.021 | -0.001 ± 0.052 | -0.013 ± 0.03 | -0.013 ± 0.014 | -0.014 ± 0.0099 | -0.0085 ± 0.011 | -0.011 ± 0.0028 | -0.012 ± 0.0085 | -0.0175 ± 0.013 | 0.043 ± 0.069 | -0.0085 ± 0.0092 | -0.0125 ± 0.035 | -0.0045 ± 0.021 | 0.006 ± 0.0099 | 0.006 ± 0.0057 | 0.0095 ± 0.026
3 | HDF3CGF:CCL2/MCP-1 | -0.0185 ± 0.005 | -0.004 ± 0.013 | -0.0095 ± 0.018 | -0.005 ± 0.0057 | -0.0255 ± 0.0035 | -0.043 ± 0.024 | -0.023 ± 0.0057 | -0.0145 ± 0.022 | -0.033 ± 0.0014 | 0.0205 ± 0.022 | -0.013 ± 0.021 | 0.0135 ± 0.018 | -0.017 ± 0.0071 | -0.043 ± 0.0014 | -0.0075 ± 0.037 | 0.0005 ± 0.025 | -0.023 ± 0.03 | 0.001 ± 0.014 | 0.0225 ± 0.021 | -0.009 ± 0.03
4 | 3C:CD141/Thrombomodulin | 0.0125 ± 0.015 | -0.0105 ± 0.018 | -0.0275 ± 0.026 | -0.0055 ± 0.036 | -0.041 ± 0.065 | -0.0855 ± 0.049 | -0.006 ± 0.02 | -0.0115 ± 0.022 | -0.0185 ± 0.039 | -0.017 ± 0.016 | -0.008 ± 0.02 | -0.014 ± 0.048 | -0.0345 ± 0.039 | -0.016 ± 0.04 | -0.0185 ± 0.049 | -0.019 ± 0.0085 | -0.054 ± 0.0085 | -0.0025 ± 0.018 | -0.005 ± 0.0042 | 0.0195 ± 0.005
5 | lMphg:CD69 | -0.0265 ± 0.0078 | -0.0345 ± 0.015 | 0.027 ± 0.013 | -0.0205 ± 0.029 | -0.004 ± 0.0028 | 0.022 ± 0.011 | 0.0175 ± 0.018 | -0.005 ± 0.025 | -0.0825 ± 0.074 | -0.049 ± 0.024 | -0.053 ± 0.016 | -0.0505 ± 0.021 | -0.0425 ± 0.0021 | -0.196 ± 0.063 | 0.0035 ± 0.005 | -0.0195 ± 0.005 | -0.0525 ± 0.043 | -0.0555 ± 0.066 | -0.052 ± 0.098 | -0.0465 ± 0.066
6 | lMphg:CCL2/MCP-1 | -0.0225 ± 0.022 | 0.0065 ± 0.025 | 0.0055 ± 0.025 | -0.0005 ± 0.0092 | -0.0315 ± 0.0078 | -0.0755 ± 0.011 | 0.012 ± 0.013 | 0.001 ± 0.025 | -0.0235 ± 0.035 | 0.008 ± 0.047 | 0.0025 ± 0.015 | -0.024 ± 0.037 | -0.0225 ± 0.023 | -0.0435 ± 0.0092 | 0.0105 ± 0.0021 | 0.0105 ± 0.0078 | 0.0145 ± 0.025 | -0.01 ± 0.0042 | -0.0075 ± 0.015 | -0.0295 ± 0.012
7 | BE3C:Keratin 8/18 | 0.011 ± 0.0071 | 0.004 ± 0.054 | -0.009 ± 0.033 | 0.012 ± 0.014 | -0.02 ± 0.047 | -0.0095 ± 0.021 | -0.001 ± 0.0085 | -0.009 ± 0.0028 | -0.0105 ± 0.0078 | -0.0025 ± 0.015 | 0.0095 ± 0.0092 | -0.0075 ± 0.013 | -0.0135 ± 0.026 | 0.027 ± 0.0042 | 0.003 ± 0.0014 | -0.0035 ± 0.00071 | -0.0165 ± 0.0078 | -0.023 ± 0.041 | 0.0035 ± 0.019 | -0.009 ± 0.037
